“And” between values parts separate entries of the source, which are not always exact repeats. Equal values may be shown once. Read-outs that look alike come from different tables or passages of the source.

Holding throughout (design): expressed in transfected cells
The target of one assay is α5β3γ2 GABAA/BzR (Homo sapiens, UniProt P18507+P31644). Kind of assay: Competition binding to HEK cell membranes, α5β3γ2.
The target in a further assay is α1β3γ2 GABAA/BzR (Homo sapiens, UniProt P14867+P18507). Kind of assay: Competition binding to HEK cell membranes, α1β3γ2.
The next assay addresses α2β3γ2 GABAA/BzR (Homo sapiens, UniProt P18507+P47869). Description: Competition binding to HEK cell membranes, α2β3γ2.
A further assay addresses α6β3γ2 GABAA/BzR (Homo sapiens, UniProt P18507+Q16445). Description: Competition binding to HEK cell membranes, α6β3γ2.
In another assay the target is α3β3γ2 GABAA/BzR (Homo sapiens, UniProt P18507+P34903). Description: Competition binding to HEK cell membranes, α3β3γ2.

For `C#Cc1ccc2c(c1)C(=O)N(C)Cc1c(C(=O)OC(C)(C)C)ncn1-2` [RY-024], the Ki was 0.4 nM on α5β3γ2 GABAA/BzR (read-out: Ki α5); 26.9 nM on α1β3γ2 GABAA/BzR (read-out: Ki α1); 26.3 nM on α2β3γ2 GABAA/BzR (read-out: Ki α2); 5.1 nM on α6β3γ2 GABAA/BzR (read-out: Ki α6); 18.7 nM at α3β3γ2 GABAA/BzR (read-out: Ki α3).

Take `CCOC(=O)c1ncoc1-c1ncn2c1C1CCN1C(=O)c1cc(Br)ccc1-2` (centres unmarked) [RY-062 (12)]: the inhibition constant (Ki) on α5β3γ2 GABAA/BzR (Figure 5, read-out: Ki α5) was 172 nM; on α1β3γ2 GABAA/BzR (Figure 5, read-out: Ki α1), greater than 1000 nM; on α2β3γ2 GABAA/BzR (Figure 5, read-out: Ki α2) it was greater than 1000 nM; on α6β3γ2 GABAA/BzR (Figure 5, read-out: Ki α6) it was greater than 2000 nM; at α3β3γ2 GABAA/BzR (Figure 5, read-out: Ki α3), greater than 500 nM.

As to `O=C1C2C=Nc3ccccc3C2=NN1c1ccccc1` (centres unmarked) [QH-II-090 (CGS-8216), reference compound], the inhibition constant (Ki) is 0.25 nM at α5β3γ2 GABAA/BzR (Ki α5); 0.13 nM and 0.05 nM on α1β3γ2 GABAA/BzR (Ki α1); 0.08 nM at α2β3γ2 GABAA/BzR (Ki α2); 46 nM and 17 nM at α6β3γ2 GABAA/BzR (Ki α6); 0.12 nM at α3β3γ2 GABAA/BzR (Ki α3).

On to `Cc1nnc2n1-c1ccc(Br)cc1C(c1ccccc1F)=NC2` [JYI-64 (C17H12N4FBr)], for which the inhibition constant (Ki) is 0.87 nM on α5β3γ2 GABAA/BzR (read-out: Ki α5); 0.305 nM on α1β3γ2 GABAA/BzR (read-out: Ki α1); 1.11 nM at α2β3γ2 GABAA/BzR (read-out: Ki α2); 5000 nM at α6β3γ2 GABAA/BzR (read-out: Ki α6); 0.62 nM at α3β3γ2 GABAA/BzR (read-out: Ki α3).

Regarding `Oc1ccc2c(c1)[nH]c1c2ncc2[nH]c3ccccc3c21` [MLT-II-34], the Ki was 158 nM on α5β3γ2 GABAA/BzR (read-out: Ki α5); 7.04 nM on α1β3γ2 GABAA/BzR (read-out: Ki α1); 15.9 nM at α2β3γ2 GABAA/BzR (read-out: Ki α2); 1000 nM on α6β3γ2 GABAA/BzR (read-out: Ki α6); 22.3 nM at α3β3γ2 GABAA/BzR (read-out: Ki α3).

Turning to `Cc1nnc2n1-c1ccc(Br)cc1C(c1ccccc1F)=NC2` [JYI-64], the Ki on α5β3γ2 GABAA/BzR (read-out: Ki α5) amounted to 0.87 nM; at α1β3γ2 GABAA/BzR (read-out: Ki α1), 0.305 nM; on α2β3γ2 GABAA/BzR (read-out: Ki α2), 1.11 nM; at α6β3γ2 GABAA/BzR (read-out: Ki α6) it was 5000 nM; on α3β3γ2 GABAA/BzR (read-out: Ki α3) it was 0.62 nM.

As to `O=C(OCC(F)(F)F)c1ncn2c1CN=C(c1ccccc1F)c1cc(-c3ccco3)ccc1-2` [JYI-54], the Ki on α5β3γ2 GABAA/BzR (read-out: Ki α5) was 57 nM; on α1β3γ2 GABAA/BzR (read-out: Ki α1), 2.89 nM; at α2β3γ2 GABAA/BzR (read-out: Ki α2) it was 172 nM; at α6β3γ2 GABAA/BzR (read-out: Ki α6), 1890 nM; on α3β3γ2 GABAA/BzR (read-out: Ki α3) it was 6.7 nM.

`c1ccc2c(c1)[nH]c1cnc3c4cccnc4[nH]c3c12` [LJD-III-15E]: the Ki is 70.8 nM at α5β3γ2 GABAA/BzR (read-out: Ki α5); 1.93 nM on α1β3γ2 GABAA/BzR (read-out: Ki α1); 14 nM at α2β3γ2 GABAA/BzR (read-out: Ki α2); 1000 nM on α6β3γ2 GABAA/BzR (read-out: Ki α6); 19 nM at α3β3γ2 GABAA/BzR (read-out: Ki α3).

Regarding `Cc1nnc2n1-c1ccc(Br)cc1C(c1ccccc1Cl)=NC2` [DM-II-90], the Ki on α5β3γ2 GABAA/BzR (read-out: Ki α5) was determined as 0.37 nM; at α1β3γ2 GABAA/BzR (read-out: Ki α1), 0.505 nM; on α2β3γ2 GABAA/BzR (read-out: Ki α2), 1 nM; at α6β3γ2 GABAA/BzR (read-out: Ki α6), 5000 nM; at α3β3γ2 GABAA/BzR (read-out: Ki α3) it was 0.63 nM.

In the case of `CC[C@@H](C)OC(=O)c1cc2c(cn1)[nH]c1ccccc12` [CM-A49 (R)], the Ki at α5β3γ2 GABAA/BzR (read-out: Ki α5) stood at 69 nM; on α1β3γ2 GABAA/BzR (read-out: Ki α1), 7.7 nM; on α2β3γ2 GABAA/BzR (read-out: Ki α2), 32.5 nM; on α6β3γ2 GABAA/BzR (read-out: Ki α6), 1000 nM; on α3β3γ2 GABAA/BzR (read-out: Ki α3), 43 nM.

Turning to `CN1Cc2c(C(=O)OC3CC3)ncn2-c2ccc(Cl)cc2C1=O` [CD-214], the Ki stood at 9.8 nM at α5β3γ2 GABAA/BzR (read-out: Ki α5); 16.4 nM at α1β3γ2 GABAA/BzR (read-out: Ki α1); 48.2 nM on α2β3γ2 GABAA/BzR (read-out: Ki α2); 168 nM at α6β3γ2 GABAA/BzR (read-out: Ki α6); 42.5 nM on α3β3γ2 GABAA/BzR (read-out: Ki α3).

As for `Fc1ccc2c(c1)[nH]c1c2ncc2[nH]c3ccccc3c21` [MLT-II-16], the inhibition constant Ki at α5β3γ2 GABAA/BzR (read-out: Ki α5) is 260 nM; at α1β3γ2 GABAA/BzR (read-out: Ki α1), 5.05 nM; at α2β3γ2 GABAA/BzR (read-out: Ki α2), 10.4 nM; on α6β3γ2 GABAA/BzR (read-out: Ki α6) it was 10000 nM; on α3β3γ2 GABAA/BzR (read-out: Ki α3), 18.4 nM.

Regarding `CC[C@H](C)OC(=O)c1cc2c(cn1)[nH]c1ccccc12` [CM-A50 (S)], the inhibitory constant (Ki) came out at 144 nM at α5β3γ2 GABAA/BzR (read-out: Ki α5); 17 nM at α1β3γ2 GABAA/BzR (read-out: Ki α1); 59 nM at α2β3γ2 GABAA/BzR (read-out: Ki α2); 1000 nM at α6β3γ2 GABAA/BzR (read-out: Ki α6); 88 nM at α3β3γ2 GABAA/BzR (read-out: Ki α3).

With `COc1ccc(-n2nc3c4ccc(OC)cc4[nH]cc-3c2=O)cc1` [PZII-029], the Ki at α5β3γ2 GABAA/BzR (read-out: Ki α5) was determined as 0.52 nM; at α1β3γ2 GABAA/BzR (read-out: Ki α1) it was 0.34 nM; on α6β3γ2 GABAA/BzR (read-out: Ki α6) it was 10 nM; on α3β3γ2 GABAA/BzR (read-out: Ki α3), 0.79 nM.

`COCc1c(C(=O)OC(C)C)ncc2[nH]c3ccc(OCc4ccccc4)cc3c12` [ABECARNIL, reference compound]: the Ki worked out at 6 nM at α5β3γ2 GABAA/BzR (Ki α5); 12.4 nM at α1β3γ2 GABAA/BzR (Ki α1); 15.3 nM at α2β3γ2 GABAA/BzR (Ki α2); 1000 nM on α6β3γ2 GABAA/BzR (Ki α6); 7.5 nM on α3β3γ2 GABAA/BzR (Ki α3).

Consider `C#Cc1ccc2c(c1)C(c1ccccc1F)=NCC(=O)N2` [JYI-60], for which the inhibition constant Ki at α5β3γ2 GABAA/BzR (read-out: Ki α5) was determined as 1.7 nM; on α1β3γ2 GABAA/BzR (read-out: Ki α1), 3.73 nM; at α2β3γ2 GABAA/BzR (read-out: Ki α2) it was 1.64 nM; at α6β3γ2 GABAA/BzR (read-out: Ki α6), 5000 nM; at α3β3γ2 GABAA/BzR (read-out: Ki α3), 4.3 nM.

In the case of `CC(C)(C)OC(=O)c1ncn2c1C1CCCN1C(=O)c1cc(Br)ccc1-2` (centres unmarked) [JYI-01], the inhibition constant Ki on α5β3γ2 GABAA/BzR (read-out: Ki α5) stood at 10.6 nM; at α1β3γ2 GABAA/BzR (read-out: Ki α1), 59.2 nM; at α6β3γ2 GABAA/BzR (read-out: Ki α6), 2.88 nM; at α3β3γ2 GABAA/BzR (read-out: Ki α3), 96 nM.

As a reminder, the Ki is the equilibrium dissociation constant of an inhibitor or competing ligand from its target.

Values taken from article PMC4657098, “A Review of the Updated Pharmacophore for the Alpha 5 GABA(A) Benzodiazepine Receptor Model” (International Journal of Medicinal Chemistry, 2015).
